Results published in the Deep4Chem optical property database.
Several values for one entry are separate records, joined by “and”; a condition that tells them apart may be missing. Identical values can stand only once. Each block holds one molecule with its values, some of them ahead of it.

Test: solvent given as SMILES

absorption maximum (in CCO): 598 nm
absorption maximum (in ClC(Cl)Cl): 610 nm
absorption maximum (in O): 601 nm
Compound: CC[N+](CC)=c1ccc2c(-c3ccccc3C(=O)O)c3c(=O)oc4cc5c(cc4c3oc-2c1)CCCN5C

Compound: CC1=CC(c2ccc3ccccc3c2)=[O+][B-]2(OC(=O)C(=O)O2)O1
absorption maximum (in CC#N): 400 nm
absorption maximum (in ClC(Cl)(Cl)Cl): 400 nm

Compound: c1ccc2c(c1)Cc1ccccc1N2c1c2ccccc2c(N2c3ccccc3Cc3ccccc32)c2ccccc12
absorption maximum (in Cc1ccccc1): 440 nm

absorption maximum (in ClCCl): 387 nm
Compound: O=P1(c2ccccc2)C(c2ccc(C(F)(F)F)cc2)=Cc2cc3ccccc3cc21 (stereo not given)

absorption maximum (in CC#N): 597 nm
absorption maximum (in CCO): 601 nm
absorption maximum (in ClCCl): 610 nm
absorption maximum (in O): 579 nm
Compound: C=CCNc1ccc2c(ccc3oc4cc(=[N+](C)C)ccc-4nc32)c1

absorption maximum (in ClCCl): 333 nm
Compound: CCCCC(CC)COc1cc(OCC(CC)CCCC)c2c#cc3ccc4sc5ccc(c#cc6cc(c#cc7ccc8sc9ccc(c#cc1c2)cc9c8c7)c(C(CCCC)OCCC)cc6C(CCCC)OCCC)cc5c4c3 (stereo not given)

absorption maximum (in ClCCl): 356 nm
absorption maximum (in O): 346 nm
Compound: Oc1c(-c2cccs2)cccc1-c1nc2ccccc2s1

absorption maximum (in C1CCCCC1): 392 nm
absorption maximum (in CC#N): 393 nm
absorption maximum (in CO): 392 nm
absorption maximum (in ClCCl): 396 nm
Compound: COc1ccc2c3c(OC)c4ccccc4c(OC)c3n(C)c2c1

absorption maximum (in ClCCl): 417 nm
Compound: Brc1ccc(N(c2ccc(/C=C/c3ccncn3)cc2)c2ccc(/C=C/c3ccncn3)cc2)cc1

absorption maximum (in ClCCl): 350 nm
Compound: CC(C)(C)NC(=O)c1ccc(-c2cc3ccccc3s2)c2ccc3c4ccccc4c4ccccc4c3c12

absorption maximum (in C1CCOC1): 398 nm
absorption maximum (in CC#N): 390 nm
absorption maximum (in CCO): 391 nm
absorption maximum (in CCOC(C)=O): 390 nm
absorption maximum (in ClCCl): 393 nm
absorption maximum (in c1ccccc1): 397 nm
Compound: CC1(C)CC(/C=C/c2ccc(-n3ccnc3)cc2)=CC(=C(C#N)C#N)C1

absorption maximum (in CCO): 623 nm
absorption maximum (in CS(C)=O): 630 nm
absorption maximum (in O): 555 nm
Compound: CC1(C)C(/C=C/c2cc3ccc(O)cc3oc2=O)=[N+](CCCS(=O)(=O)[O-])c2ccccc21

Compound: CC(C)(C)c1ccc2c(c1)c1cc(C(C)(C)C)ccc1n2-c1cccc(-c2nc(-c3cccc(P(=O)(c4ccccc4)c4ccccc4)c3)nc(-c3cccc(P(=O)(c4ccccc4)c4ccccc4)c3)n2)c1
absorption maximum (in C1CCOC1): 343 nm
absorption maximum (in CC#N): 343 nm
absorption maximum (in CC(C)=O): 343 nm
absorption maximum (in CN(C)C=O): 343 nm
absorption maximum (in Cc1ccccc1): 343 nm
absorption maximum (in ClC(Cl)Cl): 343 nm
absorption maximum (in ClCCl): 343 nm

Compound: CC1=[N+]2C(=C(c3c4ccccc4cc4ccccc34)c3ccc(C)n3[B-]2(F)F)C=C1
absorption maximum (in C1CCOC1): 517 nm
absorption maximum (in CC#N): 514 nm
absorption maximum (in CCCCCC): 515 nm and 516 nm
absorption maximum (in CCO): 515 nm
absorption maximum (in CN(C)C=O): 517 nm
absorption maximum (in CO): 517 nm
absorption maximum (in CS(C)=O): 519 nm
absorption maximum (in Cc1ccccc1): 519 nm
absorption maximum (in ClC(Cl)Cl): 518 nm
absorption maximum (in ClCCl): 518 nm

Compound: CCC1=C(C)C2=C(C)c3c(C)c(-c4csc(N5CCOCC5)n4)c(C)n3[B-](F)(F)[N+]2=C1C
absorption maximum (in C1CCOC1): 524 nm
absorption maximum (in C1COCCO1): 524 nm
absorption maximum (in CC#N): 516 nm
absorption maximum (in CC(C)O): 518 nm
absorption maximum (in CCO): 516 nm
absorption maximum (in CCOC(C)=O): 520 nm
absorption maximum (in CN(C)C=O): 524 nm
absorption maximum (in CO): 514 nm
absorption maximum (in CS(C)=O): 521 nm
absorption maximum (in Cc1ccccc1): 527 nm
absorption maximum (in ClC(Cl)Cl): 523 nm
absorption maximum (in ClCCl): 522 nm

absorption maximum (in C1CCOC1): 589 nm
Compound: CC1=C(c2ccc(-c3nc(-c4ccccc4)c(-c4ccccc4)[nH]3)cc2)S[C@]2(C)C1=C1C(=C3c4ccccc4C(C)[C@]32C)C(F)(F)C(F)(F)C1(F)F (stereo not given in full)

Compound: c1ccc2cc(-n3cnc4ccccc43)ccc2c1
absorption maximum (in C1CCCCC1): 275 nm
absorption maximum (in C1CCOC1): 277 nm
absorption maximum (in CC#N): 278 nm
absorption maximum (in CCO): 277 nm
absorption maximum (in CCOC(C)=O): 278 nm
absorption maximum (in CCOCC): 276 nm
absorption maximum (in CO): 275 nm
absorption maximum (in Cc1ccccc1): 275 nm
absorption maximum (in ClC(Cl)Cl): 276 nm

Compound: CC1=CC(C)=[N+]2C1=C(c1ccc(N3CCOCC3)cc1)c1c(C)cc(C)n1[B-]2(F)F
absorption maximum (in C1CCOC1): 500 nm
absorption maximum (in CC#N): 496 nm
absorption maximum (in CC(=O)C(C)(C)C): 495 nm
absorption maximum (in CC(C)=O): 490 nm
absorption maximum (in CCCCCC): 498 nm
absorption maximum (in CCOC(C)=O): 498 nm
absorption maximum (in CO): 494 nm

absorption maximum (in ClCCl): 404 nm
Compound: CCCCn1c2ccccc2c2ccc(C#Cc3ccc4ccc5cccc6ccc3c4c56)cc21

absorption maximum (in C1CCCCC1): 362 nm
absorption maximum (in CC#N): 355 nm
absorption maximum (in CO): 350 nm
absorption maximum (in ClCCl): 357 nm
absorption maximum (in O): 367 nm
Compound: c1ccc(-c2nc(-c3cccc4ccccc34)n3ccccc23)cc1

absorption maximum (in ClC(Cl)Cl): 482 nm
Compound: N#CC1=CC(Br)=CC(C#N)=P1(c1ccccc1)c1ccccc1

absorption maximum (in CCCCCC): 508 nm
absorption maximum (in CO): 503 nm
absorption maximum (in ClCCl): 506 nm
Compound: CC1=CC(C)=[N+]2C1=Cc1c(C)cc(C)n1[B-]2(F)F

Compound: Cc1ccc(C2=C3C=CC([Te]c4ccccc4)=[N+]3[B-](F)(F)n3c([Te]c4ccccc4)ccc32)cc1
absorption maximum (in C1CCOC1): 620 nm

Compound: CC1(C)c2ccccc2N(c2ccc(-c3n[n+]4c(o3)-c3ccccc3O[B-]4(F)F)cc2)c2ccccc21
absorption maximum (in C1COCCO1): 361 nm
absorption maximum (in CC(C)=O): 360 nm
absorption maximum (in CCN(CC)CC): 362 nm
absorption maximum (in CCO): 361 nm
absorption maximum (in CCOC(C)=O): 361 nm
absorption maximum (in CS(C)=O): 362 nm
absorption maximum (in Cc1ccccc1): 364 nm
absorption maximum (in ClC(Cl)Cl): 367 nm
absorption maximum (in ClCCCl): 362 nm
absorption maximum (in ClCCl): 383 nm
absorption maximum (in Clc1ccccc1): 369 nm

absorption maximum (in CC#N): 398 nm
absorption maximum (in ClCCl): 402 nm
Compound: COC(=O)c1cc(=O)n(C)c2cc(-c3ccc4c(c3)OCCO4)sc12

absorption maximum (in CC#N): 432 nm
absorption maximum (in ClCCl): 436 nm
Compound: COC(=O)c1cc(=O)n(Cc2ccccc2)c2cc(-c3ccc(N(C)C)cc3)sc12

absorption maximum (in C1CCOC1): 761 nm
absorption maximum (in CN(C)C=O): 764 nm
absorption maximum (in ClCCl): 762 nm
absorption maximum (in c1ccccc1): 765 nm
Compound: F[B-]1(F)n2c(c3cc4ccccc4cc3c2-c2ccccc2)C=C2c3cc4ccccc4cc3C(c3ccccc3)=[N+]21

absorption maximum (in ClCCl): 505.72 nm
Compound: O=C1c2ccccc2C(=O)C1C1C(=O)c2c3ccccc3cc3cc4ccccc4c1c23 (stereo not given)

absorption maximum (in O): 303 nm
Compound: CCCCn1c(-c2ccc(-c3ccc(-c4ccc(-c5n(CCCC)c6ccccc6[n+]5CCCC)cc4)cc3)cc2)[n+](CCCC)c2ccccc21

absorption maximum (in ClCCl): 386 nm
Compound: CC(C)(C)c1ccc2c(c1)c1cc(C(C)(C)C)ccc1n2-c1ccc(C#Cc2ccc3c4ccc(C#Cc5ccc(/C=C(/C#N)C(=O)O)cc5)cc4n(-c4ccc(C(F)(F)F)cc4)c3c2)cc1

absorption maximum (in ClC(Cl)Cl): 617 nm
Compound: C[N+]1=c2ccc3c(c2C(C)(C)CC1)Oc1cc2c(cc1C=3c1ccccc1C(=O)O)C(c1ccccc1C(=O)O)=c1ccc3c(c1O2)C(C)(C)CC[N+]=3C

absorption maximum (in ClC(Cl)Cl): 366 nm
Compound: Clc1ccc(-c2nc(-c3ccccc3)sc2N(c2ccccc2)c2ccccc2)cc1

absorption maximum (in CS(C)=O): 364 nm
Compound: CCOC(=O)C1=C(N)n2c(=O)c3ccccc3c(=O)n2C1c1ccccc1 (stereo not given)

absorption maximum (in CC#N): 331 nm
Compound: FC(F)(F)c1ccc(-c2pc3ccccc3s2)cc1 (stereo not given)

absorption maximum (in CC#N): 380 nm
absorption maximum (in CCCCCC): 387 nm
absorption maximum (in CO): 382 nm
absorption maximum (in CS(C)=O): 392 nm
absorption maximum (in ClC(Cl)Cl): 385 nm
Compound: COc1c(/C=N/Nc2ccc(C#N)cc2)ccc2ccccc12

Compound: O=C1NC(=O)C(c2c[nH]c3ccccc23)=C1c1c[nH]c2ccccc12
absorption maximum (in C1CCOC1): 450 nm
absorption maximum (in CC#N): 446 nm
absorption maximum (in CC(C)OC(C)C): 443 nm
absorption maximum (in CCCCOCCCC): 445 nm
absorption maximum (in CCO): 460 nm
absorption maximum (in CCOC(C)=O): 445 nm
absorption maximum (in CN(C)C=O): 454 nm
absorption maximum (in Cc1ccccc1): 447 nm
absorption maximum (in ClCCl): 448 nm

absorption maximum (in C1CCOC1): 290 nm
Compound: C1=C(c2ccccc2)C(c2ccccc2)=CC1c1ccccc1

Compound: c1ccc(-c2nc(-c3ccccc3)c(-c3ccccc3)o2)cc1
absorption maximum (in Cc1ccccc1): 311 nm

absorption maximum (in CC#N): 423 nm
absorption maximum (in CCCCCC): 413 nm
absorption maximum (in CCO): 428 nm
absorption maximum (in CO): 428 nm
absorption maximum (in ClCCl): 425 nm
Compound: CCCC(=O)c1c2c(c(C(=O)CCC)c3c1OC(CC(=O)OC)(C(=O)OC)O3)OCO2

absorption maximum (in CC#N): 423 nm
Compound: C(=C\c1ccc(/C=C/c2cccs2)s1)/c1cccs1

absorption maximum (in ClCCl): 390 nm
Compound: CCOC(=O)c1ccc(C2=Cc3cc4ccccc4cc3P2(=O)c2ccccc2)cc1 (stereo not given)

absorption maximum (in O): 387 nm
Compound: CC1(C)C(=O)C=Cc2ccc(N3CCC3)cc21

Compound: COc1cc(OC)c2ccc(=O)oc2c1
absorption maximum (in CC(C)O): 324 nm
absorption maximum (in CCO): 324 nm
absorption maximum (in CCOCC): 318 nm
absorption maximum (in CO): 324 nm
absorption maximum (in O): 327 nm

absorption maximum (in C1CCOC1): 420 nm
Compound: CCCCCCCCCc1c2ccccc2cc2c1oc1c3oc4c5oc6cc7ccccc7cc6c5c5ccccc5c4c3c3ccccc3c21

absorption maximum (in CCO): 297 nm
absorption maximum (in CO): 296 nm
absorption maximum (in O): 284 nm
Compound: Cc1cc(C)nc(N)n1

absorption maximum (in CCOC(C)=O): 383 nm
Compound: CCn1ncc2c3c(C#N)c4c5ccccc5n(C)c4nc3ccc21

absorption maximum (in C1CCCCC1): 374.83 nm
Compound: CC(C)c1cc(C(C)C)c(B2c3cc(N4c5ccccc5C(C)(C)c5ccccc54)ccc3N(c3ccccc3)c3ccc(N4c5ccccc5C(C)(C)c5ccccc54)cc32)c(C(C)C)c1

absorption maximum (in ClC(Cl)Cl): 425 nm
Compound: Fc1cccc(C2=Cc3ccc4ccccc4[n+]3[B-](F)(F)O2)c1

absorption maximum (in ClCCl): 366 nm
Compound: CN(C)c1cc(-c2ccc(C#Cc3cc[n+](C)cc3)cc2)cc2ccccc12

absorption maximum (in ClC(Cl)Cl): 371 nm
Compound: Clc1ccc(-c2nc(-c3ccccc3)c(N(c3ccccc3)c3ccccc3)s2)cc1
